Data from ChEMBL document CHEMBL1201862, “PubChem BioAssay data set” (2004).

Experiments:
Cytochrome P450 1A2 = target: T1, Cytochrome P450 1A2 (Homo sapiens, UniProt P05177);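 further: PubChem cytochrome P450 panel assay, CYP1A2 panel member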
T1 sequence (P05177 whole entry): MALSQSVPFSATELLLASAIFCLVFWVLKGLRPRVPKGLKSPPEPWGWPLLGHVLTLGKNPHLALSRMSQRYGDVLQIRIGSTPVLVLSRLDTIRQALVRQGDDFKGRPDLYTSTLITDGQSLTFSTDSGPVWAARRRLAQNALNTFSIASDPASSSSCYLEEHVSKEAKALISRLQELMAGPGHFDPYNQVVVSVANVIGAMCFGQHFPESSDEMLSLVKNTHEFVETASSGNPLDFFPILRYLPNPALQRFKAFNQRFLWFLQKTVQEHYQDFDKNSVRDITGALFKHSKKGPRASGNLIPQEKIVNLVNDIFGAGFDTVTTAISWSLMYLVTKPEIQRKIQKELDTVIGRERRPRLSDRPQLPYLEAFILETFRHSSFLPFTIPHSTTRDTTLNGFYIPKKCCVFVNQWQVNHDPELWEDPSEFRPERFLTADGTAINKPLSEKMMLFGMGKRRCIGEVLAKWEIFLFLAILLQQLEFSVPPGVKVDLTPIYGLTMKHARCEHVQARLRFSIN

Cytochrome P450 2C19 = Cytochrome P450 2C19 (Homo sapiens, UniProt P33261); assay: Cytochrome panel assay with activity outcomes. Panel member name: p450-cyp2c19 Compounds with AC50 equal or less than 10 uM are considered active; format: functional
Cytochrome P450 2C9 = Cytochrome P450 2C9 (Homo sapiens, UniProt P11712)
Cytochrome P450 3A4 = Cytochrome P450 3A4 (Homo sapiens, UniProt P08684);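 further: CYP3A4 tested as one member of a cytochrome P450 panel screen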
Chain of Cytochrome P450 3A4 (P08684 whole entry): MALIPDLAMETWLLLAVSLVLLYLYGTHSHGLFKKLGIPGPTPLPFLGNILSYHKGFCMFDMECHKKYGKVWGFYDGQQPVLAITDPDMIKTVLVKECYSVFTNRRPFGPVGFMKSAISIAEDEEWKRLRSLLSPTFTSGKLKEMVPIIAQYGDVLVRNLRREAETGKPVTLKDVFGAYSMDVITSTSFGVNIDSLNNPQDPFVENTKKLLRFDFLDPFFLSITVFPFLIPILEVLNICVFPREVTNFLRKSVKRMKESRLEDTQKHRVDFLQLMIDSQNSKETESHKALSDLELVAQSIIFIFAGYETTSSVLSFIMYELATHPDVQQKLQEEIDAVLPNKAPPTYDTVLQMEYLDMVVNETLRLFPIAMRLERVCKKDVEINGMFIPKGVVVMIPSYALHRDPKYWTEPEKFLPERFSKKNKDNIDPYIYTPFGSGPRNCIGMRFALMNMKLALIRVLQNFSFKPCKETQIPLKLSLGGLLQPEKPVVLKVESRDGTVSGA

Chain of Cytochrome P450 2C9 (P11712 whole entry): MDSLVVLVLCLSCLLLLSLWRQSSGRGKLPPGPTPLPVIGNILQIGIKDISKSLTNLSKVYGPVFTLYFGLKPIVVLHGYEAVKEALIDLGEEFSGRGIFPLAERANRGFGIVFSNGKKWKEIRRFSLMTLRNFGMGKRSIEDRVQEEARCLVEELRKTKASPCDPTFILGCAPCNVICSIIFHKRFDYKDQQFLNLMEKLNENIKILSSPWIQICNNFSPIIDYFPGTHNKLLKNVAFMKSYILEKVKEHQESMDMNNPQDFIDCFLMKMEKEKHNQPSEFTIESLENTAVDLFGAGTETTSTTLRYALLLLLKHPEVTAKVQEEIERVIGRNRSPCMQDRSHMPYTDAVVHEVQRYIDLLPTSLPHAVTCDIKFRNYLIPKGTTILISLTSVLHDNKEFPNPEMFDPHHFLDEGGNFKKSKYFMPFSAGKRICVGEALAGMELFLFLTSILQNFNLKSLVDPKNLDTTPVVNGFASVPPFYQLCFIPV
Chain of Cytochrome P450 2C19 (P33261 whole entry): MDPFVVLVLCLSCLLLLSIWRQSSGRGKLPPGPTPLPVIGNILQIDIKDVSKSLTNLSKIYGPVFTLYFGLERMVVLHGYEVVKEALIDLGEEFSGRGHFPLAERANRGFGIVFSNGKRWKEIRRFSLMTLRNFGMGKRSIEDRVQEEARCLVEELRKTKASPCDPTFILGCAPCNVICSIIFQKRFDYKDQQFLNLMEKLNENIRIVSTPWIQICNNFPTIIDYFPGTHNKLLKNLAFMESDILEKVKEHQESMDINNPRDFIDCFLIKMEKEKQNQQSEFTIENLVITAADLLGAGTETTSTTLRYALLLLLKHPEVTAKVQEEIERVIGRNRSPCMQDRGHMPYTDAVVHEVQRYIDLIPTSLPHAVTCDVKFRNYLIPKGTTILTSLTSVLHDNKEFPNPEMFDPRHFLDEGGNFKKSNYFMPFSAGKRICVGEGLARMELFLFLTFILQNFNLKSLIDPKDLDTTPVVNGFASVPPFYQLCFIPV

Row | SMILES | AC50 (Cytochrome P450 1A2) | AC50 (Cytochrome P450 2C19; read-out: AC50) | AC50 (Cytochrome P450 2C9) | AC50 (Cytochrome P450 3A4) | other results
1 | O=C(Oc1ccccc1)N1CCC[C@@]2(CCN(C(c3ccccc3)c3ccccc3)C2)C1 | 25.1 µM (inconclusive) | – | – | – | –
2 | Clc1ccc(-c2nnc(-c3ccc(Br)cc3)c(N3CCSCC3)n2)cc1 | – | 11.2 µM (inconclusive) | 10 µM (inconclusive) | – | –
3 | CCOc1ccc(Cc2nccc3cc(OCC)c(OCC)cc23)cc1OCC [ETHAVERINE] | 10 µM (inconclusive) | – | – | – | –
4 | COC(=O)[C@@]1(Cc2ccc(OC)cc2)[C@H]2c3cc(C(=O)N(C)C)n(Cc4ccc(C(F)(F)F)nc4)c3C[C@H]2CN1C(=O)c1ccccc1 | – | 39.8 µM (inconclusive) | 39.8 µM (inconclusive) | – | –
5 | Cc1cccc(CS(=O)(=O)Cc2ccc(C(=O)NCc3ccco3)o2)c1 | 5.01 µM (inconclusive) | 3.55 µM (inconclusive) | 7.08 µM (inconclusive) | 39.8 µM (inconclusive) | –
6 | Cc1nnc2ccccc2c1O | 0.398 µM (inconclusive) | – | – | – | –
7 | CC(C)(C)NC[C@@H](O)COc1ccccc1C1CCCC1 | 10 µM (inconclusive) | – | 12.6 µM (inconclusive) | – | –
8 | COc1ccc(C(Cl)=C(c2ccc(OC)cc2)c2ccc(OC)cc2)cc1 [CHLOROTRIANISENE] | – | 0.1 µM (inconclusive) | – | – | –
9 | C[C@H]1C2=C3C(CC[C@H]4C(OCc5ccc(F)cc5C(F)(F)F)OC[C@](C)([C@@H]34)N(C(=O)OC(C)(C)C)C2)C2COC(=O)OCC21 (some centres not stated) | 6.31 µM (inconclusive) | – | – | – | –
10 | CCOC(=O)c1cc(NC(=O)c2ccc(C)cc2)c(=O)oc1-c1ccccc1 | – | 2.82 µM (inconclusive) | – | 28.2 µM (inconclusive) | –
11 | CO/C(O)=C1\C(C)=NC(C)=C([N+](=O)[O-])[C@H]1c1ccccc1C(F)(F)F | 31.6 µM (inconclusive) | – | – | – | –
12 | O=C(CC1C(=O)NCCN1C(=S)Nc1ccccc1)Nc1ccc2c(c1)OCCO2 (configuration not stated) | – | – | 35.5 µM (inconclusive) | 25.1 µM (inconclusive) | –
13 | Clc1ccc(C(c2ccc(Cl)cc2)[n+]2ccn(C[C@@H](OCc3ccc(Cl)cc3Cl)c3ccc(Cl)cc3Cl)c2)cc1 | – | 25.1 µM (inconclusive) | – | – | –
14 | CCc1ccc(C(=O)N2CCC(c3nc4ccccc4s3)CC2)cc1 | 17.8 µM (inconclusive) | – | – | 39.8 µM (inconclusive) | –
15 | O=C1[C@@H]2[C@H]3[C@H](O)[C@H](O)C/C(=N/OC[C@@H](O)COCc4ccco4)[C@H]3CC[C@H]2C(=O)N1c1ccc(F)cc1F | – | – | – | 3.16 µM (inconclusive) | AC50 (Cytochrome P450 2C19): inconclusive
16 | NCCNC(=S)S | – | 3.98 µM (inconclusive) | 6.31 µM (inconclusive) | – | –
17 | O=c1c(-c2cccs2)nc2cnc(N3CCOCC3)nc2n1-c1ccccc1 | – | – | 10 µM (inconclusive) | 7.94 µM (inconclusive) | –
18 | Cc1ccc(-n2ncc(N(C)C)c(Cl)c2=O)cc1 | 14.1 µM (inconclusive) | – | – | 28.2 µM (inconclusive) | –
19 | COc1cc2c(C(=O)NCc3ccc(C)o3)cn(CC(C)C)c(=O)c2cc1OC | 1.58 µM (inconclusive) | – | 10 µM (inconclusive) | – | –
20 | Cc1nnc(S)n1/N=C/c1ccccc1OCc1ccc(Cl)cc1 | – | 11.2 µM (inconclusive) | – | – | –
21 | COc1cccc(Nc2ncc3nc(CCc4ccccc4)c(=O)n(Cc4cccs4)c3n2)c1 | 3.16 µM (inconclusive) | – | – | 6.31 µM (inconclusive) | –
22 | Cc1noc(C)c1C(=O)N1CCC[C@@]2(CCN(Cc3cc(C(F)(F)F)cc(C(F)(F)F)c3)C2)C1 | – | – | – | 7.94 µM (inconclusive) | AC50 (Cytochrome P450 2C19): inconclusive
23 | Cc1ccc2[nH]c3nc(CCCn4ccnc4-c4ccccc4)nnc3c2c1 | – | 2.51 µM (inconclusive) | – | 3.16 µM (inconclusive) | –
24 | CCC1(O)c2ccccc2-c2ncccc21 (configuration not stated) | – | 39.8 µM (inconclusive) | – | – | –
25 | Cn1cccc1C(=O)N1CCC2(CCN(Cc3ccccc3)CC2)CC1 | – | 39.8 µM (inconclusive) | – | – | –
26 | COCCCn1nnnc1SCC(=O)N1CCCC1 | – | 25.1 µM (inconclusive) | 0.0126 µM (inconclusive) | – | –
27 | O=C(NCCO)c1cc2c(s1)CCC2 | 14.1 µM (inconclusive) | 5.01 µM (inconclusive) | 12.6 µM (inconclusive) | – | –

Row | SMILES | AC50 (Cytochrome P450 1A2) | AC50 (Cytochrome P450 2C19; read-out: AC50) | AC50 (Cytochrome P450 2C9) | AC50 (Cytochrome P450 3A4) | other results
28 | CC(C)C[C@H]1C(=O)N2CCC[C@@H]2[C@@]2(O)O[C@](NC(=O)[C@@H]3C=C4c5cccc6[nH]cc(c56)C[C@@H]4N(C)C3)(C(C)C)C(=O)N12 | 12.6 µM (inconclusive) | – | – | – | –
29 | COc1cnc(-c2ccccn2)nc1Sc1c(Cl)cccc1Cl | 2.82 µM (inconclusive) | 8.91 µM (inconclusive) | 15.8 µM (inconclusive) | – | –
30 | Cc1cc(=O)n2c3ccccc3n(CC(O)CN3CCCCC3)c2c1C#N (configuration not stated) | 15.8 µM (inconclusive) | – | – | – | –
31 | O=C(NCc1nc2ccccc2[nH]1)[C@H]1C[C@@H]1[C@H](NP(=O)(c1ccccc1)c1ccccc1)c1ccccc1 | 15.8 µM (inconclusive) | 39.8 µM (inconclusive) | – | 0.794 µM (inconclusive) | –
32 | CCOC(=O)C1CCCN(C/C=C/c2ccccc2[N+](=O)[O-])C1 (configuration not stated) | – | – | 15.8 µM (inconclusive) | 25.1 µM (inconclusive) | –
33 | O=S(=O)(c1ccccc1)N1CCC2(CCCN(c3ncccn3)C2)CC1 | 15.8 µM (inconclusive) | – | – | – | –
34 | C/C(=N\OC(=O)NC(C)C)c1sc(-c2ccccc2)nc1C | – | – | 11.2 µM (inconclusive) | 25.1 µM (inconclusive) | –
35 | CC(C)(CS)C(=O)N1CCC[C@H]1C(=O)O | – | 15.8 µM (inconclusive) | – | – | –
36 | Cc1cc2ccccn2c1C(=O)c1nc(N2CCOCC2)ncc1Cl | – | – | 39.8 µM (inconclusive) | 28.2 µM (inconclusive) | –
37 | CN1C(=O)C(CC(=O)Nc2ccc(F)cc2)N(CCCc2ccccc2)C1=S (configuration not stated) | 25.1 µM (inconclusive) | 1.78 µM (inconclusive) | 2.82 µM (inconclusive) | 22.4 µM (inconclusive) | –
38 | COc1ccc(Nc2cc(=O)n(C3CCCCC3)c(=O)[nH]2)c(OC)c1 | 31.6 µM (inconclusive) | – | 25.1 µM (inconclusive) | – | –
39 | CCOc1ccc2nc(N3CCCCCC3)sc2c1 | – | – | 12.6 µM (inconclusive) | 35.5 µM (inconclusive) | –
40 | Cc1cccc2c(SCC(=O)NCC3CCCO3)nc(-c3ccc(F)cc3)nc12 (configuration not stated) | 0.447 µM (inconclusive) | – | – | – | –
41 | COc1ccc(Oc2ncc3nc(-c4ccc(Cl)cc4)c(=O)n(C[C@H]4CCCO4)c3n2)cc1 | – | 25.1 µM (inconclusive) | – | – | –
42 | O=C(Nc1ccc2ccccc2c1)c1onc2c1CCCC2 | – | 15.8 µM (inconclusive) | – | – | –
43 | Cc1cccc(-c2c3c(=O)n(C)c(=O)n(C)c3cn2C2CCCCC2)c1 | – | – | – | – | AC50 (Cytochrome P450 2C19): inconclusive
44 | Cc1cc(C)nc(NN2C(=O)/C(=C/c3ccccc3)SC2=S)n1 | – | – | – | – | AC50 (Cytochrome P450 2C19): inconclusive
45 | CNCCC=C1c2ccccc2C=Cc2ccccc21 | 6.31 µM (inconclusive) | – | – | 12.6 µM (inconclusive) | –
46 | CN(C)C(=O)c1ccc(-c2ccc3ncnc(NCCN4CCOCC4)c3c2)cc1 | 25.1 µM (inconclusive) | – | – | 15.8 µM (inconclusive) | –
47 | COC(=O)[C@@]1(Cc2ccc(F)cc2)[C@H]2c3cc(C(=O)N4CCCC4)n(CCc4ccc(OC)c(Br)c4)c3C[C@H]2CN1C(=O)c1ccccc1 | 15.8 µM (inconclusive) | – | – | – | –
48 | Cc1ccc(CN(C(=O)c2cc3ccccc3oc2=O)C2CCS(=O)(=O)C2)cc1 (configuration not stated) | 31.6 µM (inconclusive) | – | – | 4.47 µM (inconclusive) | –
49 | CN1CCN2c3ncccc3Cc3ccccc3C2C1 (configuration not stated) [MIRTAZAPINE] | 20 µM (inconclusive) | – | – | – | –
50 | COC(=O)c1ccc(NC(C)=O)o1 | 22.4 µM (inconclusive) | 39.8 µM (inconclusive) | – | – | –
51 | CCCCN1C(=O)/C(=C\c2ccco2)C(=O)N(CCc2ccccc2)C1=O | 28.2 µM (inconclusive) | – | – | 12.6 µM (inconclusive) | –
52 | C/C(Cl)=C/CSc1nnc2n(N)c(=O)c3ccccc3n12 | – | 25.1 µM (inconclusive) | 22.4 µM (inconclusive) | – | –
53 | CCC(C)Nc1c([N+](=O)[O-])cc(C)cc1[N+](=O)[O-] (configuration not stated) | – | – | 15.8 µM (inconclusive) | 25.1 µM (inconclusive) | –
